This note sets out measurements from publication PMC9878345 (Frontiers in Chemistry, 2023).

Structures are written as SMILES.

The target of this test is SARS-CoV-2 PLpro (Severe acute respiratory syndrome coronavirus 2, UniProt P0DTD1). The test is described as follows: biochemical. In kind it is biochemical. The following applies: concentration not stated.
In the case of `O=c1c2cc(O)c(O)cc2oc2cc(O)c([C@@H]3O[C@H](CO)[C@@H](O)[C@H](O)[C@H]3O)c(O)c12` [mangiferin, 2-β-D-glucopyranosyl-1,3,6,7-tetrahydroxy-9H-xanthan-9-one], the “inhibition activity in SARS-CoV-2 PLpro enzymatic activity” value is on record as “more than 50%”.

Regarding `C/C=C1/[C@H](O[C@@H]2O[C@H](CO)[C@@H](O)[C@H](O)[C@H]2O)OC=C(C(=O)OC)[C@H]1CC(=O)OCCc1ccc(O)c(O)c1` [oleuropein], the “inhibition activity in SARS-CoV-2 PLpro enzymatic activity” value was “more than 50%”. For `C[C@@H]1O[C@@H](OC[C@H]2O[C@@H](Oc3c(-c4ccc(O)c(O)c4)oc4cc(O)cc(O)c4c3=O)[C@H](O)[C@@H](O)[C@@H]2O)[C@H](O)[C@H](O)[C@H]1O` [rutin] the value was “more than 50%”.
